# Legend:
# [1] = tested on: delayed type hypersensitivity; test: Mouse Delayed Type Hypersensitivity Reaction Suppression Test-1 (SRBC); format: in vivo; conditions: SRBC sensitization; subcutaneous, everyday from 3 days before sensitization, totally 8 days; BALB/c
# Method: BALB/c mice (male, 7 weeks old) were used. The mice were classified into groups depending on the body weight, each group consisting of 7-8 mice. Each of the mice was sensitized by subcutaneously administering […] of SRBC (8×10^8 in saline) on the heel of the left hing leg. On day 4 from the sensitization, 25 μl of SRBC (8×10^9 in saline) was subcutaneously administered on the right footpad so as to induce delayed type hypersensitivity. The difference in the thicknesses of the right footpad before the induction of reaction and 24 hours after the induction of the reaction was employed as an index of the degree of the reaction.
# The test compound was dissolved in 10% DMSO-water and was subcutaneously administered everyday from 3 days before the sensitization to the day of induction of the reaction, totally 8 days. In the control group, 10% DMSO-water alone was administered in the same manner. The volume of administration was 5 ml/kg in both study groups and in the control group.
# The % suppression of the delayed type hypersensitivity reaction was calculated according to the following equation: [formula]
# wherein A means the difference in the thickness of the right hind leg before and after the reaction in control group, and B means the difference in the thickness of the right hind leg before and after the reaction in the group to which the test compound was administered.
# [2] = tested on: Cerebral cortex nerve cells; test: Brain cell-protecting action, MTT method; format: cell-based, rat; conditions: 10 μM
# Method: The brain cell-protecting action was examined by MTT [3-(4,5-dimethylthiazol-2-yl)-2,5-diphenyltetrazolium bromide] method. MTT yields a dark blue formazan compound by mitochondria in living cells. This compound was dissolved in isopropanol and absorbance at 570 nm was measured, thereby measuring the number of living cells.
# Cerebral cortex nerve cells of fetal rats of 17 days old were placed in wells of a 96-well plate at a population density of 1×10^5 cells/cm^2. Then 10 μM of a test compound was added and the cells were cultured in 200 μl of mixed medium of D-MEM/F.12 (1:1) for 3 days (37° C., 5%CO2). In a control group, the medium alone was added Then […] of MTT solution in PBS (6mg/ml) was added and the mixture was allowed to react for 3 hours (37° C., 5% CO2). After removing the culture medium, 100 μl of isopropanol was added and the absorbance was measured.
# The ratio of the absorbances of the study group and the control group was employed as an index of brain cell-protecting action.
# δ-opioid receptor [3] = target: T1, δ-opioid receptor (Mus musculus, UniProt P32300); test: Change in δ-antagonist activity against DPDPE with time in mouse vas deferens (MVD); conditions: for Ratio of IC50 Values / Kb: 173 and NTI at 20 nM, 174 and 5'-NTII at 100 nM; for Kb: read-out: Ke
# T1 construct: from tissue; host or cells: vas deferens of male ddy mice
# Method: In this experiment, ddy male mice were used. In a Magnus' tube which is filled with Krebes-Henseleit solution (NaCl […]; KCl 4.7 mM; CaCl2 2.5 mM; KH2 PO4 1.1 mM; NaHCO3 25 mM; glucose 11 mM) kept at 37° C., and into which an atmosphere consisting of 5% carbon dioxide and 95% oxygen was flown, vas deferens taken from the animals was suspended. Electric stimulation was applied through ring-shaped platinum electrodes mounted on the upper and lower portions of the tube at a frequency of 0.1 Hz and 5.0 mS duration. The contraction of the tissue was recorded on polygraph using isometric transducer.
# Then 100 nM of the test compound was added. Twenty minutes later, DPDPE was begun to be added cumulatively. The ratio of IC50 values in the presence and absence of the test compound, Ke value (the molar concentration of the test compound necessary for translating the dose-effect curve to the curve of twice dose) and pA2 value were determined. The pA2 value was determined by the method of Shild et al (Shild, H. O., Br. J. Pharmac. Chamotehr., 4, 277 (1949)). That is, the logarithm of the test compound (log[test compound]) was plotted along the abscissa and the logarithm of the value obtained by subtracting 1 from the ratio of IC50 values was plotted in the presence and absence of the test compound [log(dose ratio-1)] along the ordinate. The pA2 value was determined from the value on the abscissa when the value on the ordinate of the obtained line is 0.
# Using MVD, the antagonist activities of compounds 173 and 174 against DPDPE were determined. The ratio of IC50 values, Ke values and pA2 values at 15 minutes, 30 minutes and 1 hour from the addition of the test compounds were calculated. Since the concentrations of the test compounds are different, the reciprocals of Ke values were plotted in FIGS. 1 and 2.
# [4] = tested on: delayed type hypersensitivity; test: Mouse Delayed Type Hypersensitivity Reaction Suppression Test-3 (administration into cerebral ventricles); format: in vivo; conditions: 5×10^-8 mol/mouse into cerebral ventricles; BALB/c
# Excerpt: (§1) BALB/c mice (male, 7 weeks old) were used, and each group consisted of 4-5 mice. Spleen cells (1×10^7) obtained from a donor mouse (C57BL/6) was subcutaneously administered to sensitize the mice. On Day 7 from the sensitization, the spleen cells (5×10^6) of the donor were subcutaneously administered on the right footpad and spleen cells (5×10^6) obtained from a mouse of the same strain as the recipient mice were subcutaneously administered on the left footpad. Twenty four hours later, the thicknesses of the right and left footpads were measured with a dial thickness gage, and the difference in thicknesses of the right and left footpads before the induction of the reaction and 24 hours after the induction of the reaction was employed as the index of the degree of the reaction.
# The test compound was dissolved in water and 5×10^-8 mol/mouse was administered into cerebral ventricles. In the control group, water alone was administered similarly. The dose was 5 μl/mouse in both the study groups and the control group.
# immune system = conditions: in vitro and in vivo; Kokai No. 3-223288; cited from earlier work
# [5] = tested on: delayed type hypersensitivity; test: Delayed type hypersensitivity suppression test using mice from which adrenal glands have been removed; format: in vivo, mouse; conditions: for % Suppression: subcutaneous, totally 8 days
# Excerpt: The mechanism of immunosuppression of the compound of the present invention was examined using delayed type hypersensitivity suppression test using mice from which adrenal glands have been removed.
# as §1
# The adrenectomy was performed by cutting the back of each recipient mouse under anesthesia with ether before the sensitization and removing the adrenal gland. Sham operation was performed by cutting the back of each recipient mouse but not removing the adrenal gland.
# The test compound was dissolved in 10% DMSO-water and was subcutaneously administered everyday from the day of sensitization to the day of induction of the reaction, totally 8 days. In the control group, 10% DMSO-water alone was administered in the same manner. The volume of administration was 10 ml/kg in both study groups and in the control groups.
# δ-opioid receptor [6] = target: T1, δ-opioid receptor; test: δ-opioid antagonist activity against DPDPE in mouse vas deferens (MVD); conditions: against DPDPE; test compound 100 nM, 20 min; read-out: Ke
# Procedure, shortened: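 Vas deferens from male ddy mice in Krebs-Henseleit at 37 °C (5% CO2/95% O2), field-stimulated at 0.1 Hz, 5.0 ms, isometric contraction recorded. IC50 dose ratio, Ke and Schild pA2 derived.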
# T1 sequence (P32300 whole entry): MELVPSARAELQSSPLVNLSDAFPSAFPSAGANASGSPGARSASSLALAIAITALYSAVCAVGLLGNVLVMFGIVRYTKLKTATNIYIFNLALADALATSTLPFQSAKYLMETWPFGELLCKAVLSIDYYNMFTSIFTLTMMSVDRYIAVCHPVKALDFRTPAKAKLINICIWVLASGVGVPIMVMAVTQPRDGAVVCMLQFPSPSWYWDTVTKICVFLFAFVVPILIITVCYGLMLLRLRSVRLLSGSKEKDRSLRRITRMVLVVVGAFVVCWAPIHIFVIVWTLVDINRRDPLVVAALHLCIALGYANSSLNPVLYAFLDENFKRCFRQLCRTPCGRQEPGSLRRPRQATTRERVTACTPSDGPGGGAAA
smiles,measurement,setting,value
"Oc1ccc2c3c1O[C@H]1c4[nH]c5ccccc5c4C[C@@]4(O)[C@@H](C2)N(CC2CC2)CC[C@]314 [NTI, reference compound]",% Suppression,[1],did not suppress
same,brain cell-protecting action (in words),[2]; MTT,has brain cell-protecting action
same,Ratio of Absorbances,"[2]; study group / control group, 570 nm, 3 days culture",4.21
same,Ratio of IC50 Values,δ-opioid receptor [3]; 15 min,96.3
same,Kb,δ-opioid receptor [3]; 15 min,210 pM
same,change of antagonist activity with time (in words),δ-opioid receptor [3]; 15 min to 1 hour,did not change
same,Ratio of IC50 Values,δ-opioid receptor [3]; 30 min,95.6
same,Kb,δ-opioid receptor [3]; 30 min,210 pM
same,Ratio of IC50 Values,δ-opioid receptor [3]; 60 min,83.7
same,Kb,δ-opioid receptor [3]; 60 min,240 pM
same,% Suppression,[4],40%
same,immunosuppressive action (in words),immune system,exhibits immunosuppressive action in vitro and in vivo
same,suppressive effect after removing adrenal gland (in words),[5]; Adrenectomy vs sham,disappeared by removing adrenal gland
same,% Suppression,[5]; Adrenectomy,0%
same,% Suppression,[5]; Sham Operation,50%
same,Kb,δ-opioid receptor [6],210 pM

# Reference: patent US6291470A, “Indole derivatives process for producing the same and medicinal uses of the same” (Toray Industries, Inc., priority 1992, dated 2001)
